Measured values: ChEMBL document CHEMBL1151618, “Neoisostegane, a new bisbenzocyclooctadiene lignan lactone from Steganotaenia araliacea” (1984)
In brackets after ≈: the same amount, converted by molar mass.

System: KB
Experiment: Cytotoxicity against human KB cells
Type: functional
Conditions: read-out: ED50 (the source's name)

## COc1cc2c(cc1OC)-c1cc(OC)c(OC)c(OC)c1C[C@H]1C(=O)OC[C@@H]1C2 [NEOISOSTEGANE]
  EC50: 6.6 µg/mL (≈ 15.9 µM)
